From patent US20080300147A1, “Detection and Treatment of Fibrotic Disorders” (priority 2004, published 2008)

Tests used:
[1] = test system: myometrial smooth muscle cells (MSMC); assay: Realtime PCR mRNA expression in treated MSMC; assay type: cell-based, human
Method: Isolation and Culture of Leiomyoma and Myometrial Smooth Muscle Cells. […] Only untreated tissues were used for isolation of LSMC and MSMC. […] LSMC and MSMC were cultured in 6-well plates at an approximate density of 10^6 cells/well in DMEM-supplemented media containing 10% FBS. After reaching visual confluence, the cells were washed in serum-free media and incubated for 24 hrs under serum-free, phenol red-free condition (Chegini, N et al. Mol Hum Reprod, 2002, 8:1071-8).
Quantitative RealTime PCR. Realtime PCR was utilized for verification of 10 differentially expressed and regulated genes identified in leiomyoma and myometrium as well as LSMC and MSMC from untreated and GnRHa-treated cohorts. The selection of these genes was based not only on their expression values (up or downregulation), but classification and biological functions important to leiomyoma growth and regression, regulation by ovarian steroids, GnRHa and TGF-β. They are IL-11, CITED2, Nur77, EGR3, TGIF, TIEG, p27, p57, GAS-1 and GPRK5 representing cytokines, transcription factors, cell cycle regulators and signal transduction.
Determination of TGF-β1 on global gene expression in LSMC and MSMC. All the materials utilized for this study including isolation of leiomyoma and myometrial cells are identical to those described in detail above. To determine the effect of TGF-β1 on global gene expression in LSMC and MSMC, the cells were cultured in 6-well plates at approximate density of 10^6 cells/well in DMEM-supplemented media containing 10% FBS. […] The cells were then treated with 2.5 ng/ml of TGF-β1 (R & D System, Minneapolis, […].) for 2, 6 and 12 hours. […] The cells were washed and then treated with TGF-β1 (2.5 ng/ml) for 2 hours. Parallel experiments using untreated cells were used as controls including an additional control for TGF-β type II receptor antisense and sense experiments.
Total cellular RNA was isolated from LSMC- and MSMC-treated and untreated controls and subjected to microarray analysis. To maintain standard and allow for comparative analysis, the GeneChips used in this study were utilized, simultaneously processed and their gene expression values were subjected to global normalization and transformation. Following these unsupervised assessments the coefficient of variation was calculated for each probe set across all the chips used in this study, and the selected gene expression values of this study were independently subjected to supervised learning including R programming analysis and ANOVA with false discovery rate selected at p<0.001 (Moustakas, A. Immunol Lett, 2002, 82:85-91; Verrecchia, F. et al. J Biol Chem, 2001, 276:17058-17062). The genes identified in these cohorts were analyzed for functional annotation and visualized using Database for Annotation, Visualization, and Integrated Discovery (DAVID) software with integrated GoCharts. Following the analysis, we selected 12 of the differentially expressed and regulated genes, including 10 identified and validated in leiomyoma and myometrium from untreated and GnRHa-treated cohorts, as well as LSMC and MSMC treated in vitro with GnRHa, for validation in response to TGF-β-time dependent action using Realtime PCR. They include IL-11, EGR3, CITED2, TIEG, TGIF, Nur77, p27, p57, GAS-1 and GPRK5. In addition, the expression of Runx1 and Runx2, transcription factors that interact with TGF-β receptor signaling pathways (Zavadil, J. et al. Proc Natl Acad Sci USA, 2001, 98:6686-6691), was validated in LSMC and MSMC as well as in leiomyoma and myometrium from GnRHa-treated and untreated cohorts. Detail description of the materials and methods for Realtime PCR as well as data analysis is provided in Chegini, N. et al. J Soc Gynecol Investig, 2003, 10:161-71.
Isolation and Culture of Leiomyoma and Myometrial Smooth Muscle Cells. Leiomyoma and myometrial smooth muscle cells (LSMC and MSMC) were isolated and cultured as previously described (Chegini, N. et al. Mol Hum Reprod, 2002, 8:1071-1078). […]

[2] = test system: myometrium; conditions: GnRHa treated group compared to secretory phase tissues
Excerpt: (§1) Western Blot Analysis and Immunohistochemical Localization. For immunoblotting, total protein was isolated from small portions of GnRHa-treated and untreated leiomyoma and myometrium as well as the GnRHa-treated and untreated cells as previously described (Ding, L et al. J Clin Endocrinol Metab, 2004, 89:5549-5557; Chegini, N et al. Mol Cell Endocrinol, 2003, 209:9-16). Following determination of the tissue homogenates and cell lysates protein content an equal amount of sample proteins were subjected to SDS-PAGE and transferred to polyvinyldiene difluoride (PVDF) membrane. The blots were incubated with anti-TIEG antibody, kindly provided by Dr. Thomas Spelsberg, Department of Biochemistry, Mayo Clinic, Rochester, Minn. (Johnsen, S A et al. Oncogene, 2002, 21:5783-90), TGIF, EGR3, p27, p57, Nur77 and Gas1 antibodies purchased from Santa Cruz Biochemical (Santa Cruz, Calif.), IL-11 antibodies purchased from R & D system (Minneapolis, Minn.) for 1 hr at room temperature. […]
(§2) Western Blot Analysis and Immunohistochemical Localization. […] The homogenates' protein contents were determined, and an equal amount was subjected to SDS-PAGE and transferred to polyvinyldiene difluoride membrane.

[3] = test system: leiomyoma; conditions: GnRHa treated group compared to secretory phase tissues
Excerpt: as §1, §2

[4] = GnRHa 0.1 μM, 2, 6 and 12 hours

CCNC(=O)[C@@H]1CCCN1C(=O)[C@H](CCCNC(=N)N)NC(=O)[C@H](CC(C)C)NC(=O)[C@@H](CC(C)C)NC(=O)[C@H](Cc1ccc(O)cc1)NC(=O)[C@H](CO)NC(=O)[C@H](Cc1c[nH]c2ccccc12)NC(=O)[C@H](Cc1c[nH]cn1)NC(=O)[C@@H]1CCC(=O)N1 [GnRHa, leuprolide acetate]
CITED2 expression in MSMC [1, 4]: biphasic effect | GPRK5 expression in MSMC [1, 4]: inhibits | Runx1 expression in MSMC [1, 4]: time-dependent inhibition | Runx2 expression in MSMC [1, 4]: time-dependent inhibition | CCN2 mRNA expression in MSMC ([1]; GnRHa 0.1 μM, 2, 6 and 12 hrs): inhibited | CCN3 mRNA expression in MSMC ([1]; GnRHa 0.1 μM, 2, 6 and 12 hrs): inhibited | CCN4 mRNA expression in MSMC ([1]; GnRHa 0.1 μM, 2, 6 and 12 hrs): inhibited | S100A4 mRNA expression in MSMC ([1]; GnRHa 0.1 μM, 2, 6 and 12 hrs): inhibited | fibulin-1C mRNA expression in MSMC ([1]; GnRHa 0.1 μM, 2, 6 and 12 hrs): inhibited | FMOD expression in MSMC ([1]; GnRHa 0.1 μM, 2 and 6 hrs): no significant effect | FMOD expression in MSMC ([1]; GnRHa 0.1 μM, 12 hrs): inhibited | IL-11 expression in MSMC ([1]; GnRHa 0.1 μM, within 2 to 6 hours, control levels after 12 hours): increased | Nur77 expression in MSMC ([1]; GnRHa 0.1 μM, subsequently declined to control levels): rapid induction | FMOD immunoreactive intensity in myometrium [2]: reduction | FMOD immunoreactive intensity in leiomyoma [3]: reduction
